Consider eight molecules from ChEMBL document CHEMBL3632565, “The use of porcupine inhibitors to target Wnt-driven cancers” (Bioorg Med Chem Lett, 2015).

For assay [1], the target named is T1, Protein-serine O-palmitoleoyltransferase porcupine (Homo sapiens) (UniProt Q9H237).
T1 sequence (whole entry): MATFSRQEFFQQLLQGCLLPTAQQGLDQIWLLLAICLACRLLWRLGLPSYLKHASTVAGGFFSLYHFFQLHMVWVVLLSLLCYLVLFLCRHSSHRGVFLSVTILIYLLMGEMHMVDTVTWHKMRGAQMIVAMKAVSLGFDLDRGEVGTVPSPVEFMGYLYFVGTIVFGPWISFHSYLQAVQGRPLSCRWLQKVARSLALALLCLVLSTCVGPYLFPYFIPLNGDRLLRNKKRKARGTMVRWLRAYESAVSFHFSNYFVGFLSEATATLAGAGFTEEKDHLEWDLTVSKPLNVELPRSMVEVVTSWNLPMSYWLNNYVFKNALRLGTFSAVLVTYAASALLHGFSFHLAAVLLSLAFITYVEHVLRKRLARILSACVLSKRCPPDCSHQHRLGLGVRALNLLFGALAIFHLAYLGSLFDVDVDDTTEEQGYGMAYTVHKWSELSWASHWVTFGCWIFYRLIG
Put plainly: Binding affinity to porcupine (unknown origin).

Assay [2] deals with T2, Protein-serine O-palmitoleoyltransferase porcupine (Homo sapiens, UniProt Q9H237).
T2 sequence (Q9H237 whole entry): T1 sequence (whole entry)
The assay is described as follows: Inhibition of porcupine in human HEK293 cells by STF reporter assay. In kind it is cell-based. (In general: A reporter such as luciferase makes a cellular process visible.)

The target in assay [3] is T1, Protein-serine O-palmitoleoyltransferase porcupine (Homo sapiens). The assay is described as follows: (§1) Inhibition of porcupine in human HEK293 cells assessed as reduction in Wnt secretion by measuring suppression of beta-catenin reporter activity after 24 hrs by STF reporter assay. Format: cell-based.
The target of assay [4] is T2, Protein-serine O-palmitoleoyltransferase porcupine. Put plainly: Inhibition of porcupine activity (unknown origin) expressed in human HT1080 cells assessed as suppression of Wnt3A-mediated super top flash activity by STF luciferase assay. In kind it is cell-based, HT-1080.
The target of assay [5] is T3, Protein-serine O-palmitoleoyltransferase porcupine (Mus musculus, UniProt Q9JJJ7).
T3 sequence (Q9JJJ7 whole entry): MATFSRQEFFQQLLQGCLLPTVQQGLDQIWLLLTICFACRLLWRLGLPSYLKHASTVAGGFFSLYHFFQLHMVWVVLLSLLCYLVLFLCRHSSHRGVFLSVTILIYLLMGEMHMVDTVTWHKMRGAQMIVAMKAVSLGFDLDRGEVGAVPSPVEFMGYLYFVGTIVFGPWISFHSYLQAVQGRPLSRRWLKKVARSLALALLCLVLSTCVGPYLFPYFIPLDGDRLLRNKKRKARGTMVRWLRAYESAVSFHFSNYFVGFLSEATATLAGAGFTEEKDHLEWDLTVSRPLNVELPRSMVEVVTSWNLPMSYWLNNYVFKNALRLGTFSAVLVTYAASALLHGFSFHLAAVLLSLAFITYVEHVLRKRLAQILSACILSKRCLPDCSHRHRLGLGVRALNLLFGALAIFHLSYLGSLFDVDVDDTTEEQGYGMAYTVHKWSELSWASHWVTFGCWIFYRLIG
The assay is described as follows: Inhibition of mouse porcupine expressed in human HT1080 cells assessed as reduction in beta catenin reporter activity using firefly luciferase substrate STF reporter assay. Format: cell-based, HT-1080.

Assay [6] is described as follows: Inhibition of xenopus porcupine expressed in human HT1080 cells assessed as reduction in beta catenin reporter activity using firefly luciferase substrate STF reporter assay. Particulars: ht-1080. Format: cell-based.
A short description of assay [7]: (§2) Antitumor activity against human HPAF2 cells xenografted in Balb/c mouse assessed as tumor growth inhibition at 100 mg/kg. The conditions noted are these: HPAF-II, read-out: TGI. In kind it is functional. In general terms: Xenograft models place foreign cells or tissue in a host animal.
Assay [8] has as its system HPAF-II. The assay is described as §2. Format: functional.
Assay [9] deals with T2, Protein-serine O-palmitoleoyltransferase porcupine. The assay is described as §1. In kind it is cell-based.

pIC50: −log10 of the molar value.

As to `COc1ccc2nc(NC(=O)CNC(=O)c3ccc(=O)n(-c4ccccc4)c3)sc2c1`, the Activity in [1] was more than 25 µM. As a reminder, the pIC50 is the negative decadic logarithm of the IC50, by convention in mol/L. As for `Cn1c(=O)c2c(nc3n2[C@H](CC(=O)Nc2ccc(-c4ccccc4)nn2)CC3)n(C)c1=O`, in assay [2], the pIC50 is 8.30. On to `C[C@@H](C(=O)Nc1ccc(-c2ccsc2)cc1)n1cnc2c1c(=O)n(C)c(=O)n2C`, for which the inhibition entry in [3] is “Dose-dependent effect”.

Consider `COc1ccc(-n2nc(C(=O)NCC(=O)Nc3nc4ccc(OC)cc4s3)c3ccccc3c2=O)cc1`, for which the negative-log IC50 (pIC50) in assay [4] was 7.22.

As for `Cn1c(=O)c2c(ncn2CC(=O)Nc2ccc(-c3ccccc3)nn2)n(C)c1=O` [ETC-159], in assay [3], the inhibition result was “Dose-dependent effect”. Further, the pIC50 was 7.74 in [5] and 7.15 in [6]. The inhibition in vivo at 100 mg/kg in assay [7] was 90%. Besides, in assay [8], the TGI entry was “Dose-dependent effect”. For the molecule `O=C(CNC(=O)c1nn(-c2ccccc2)c(=O)c2ccccc12)Nc1nccs1`, the Activity in assay [1] is more than 25 µM. On to `C[C@H](C(=O)Nc1ccc(-c2ccsc2)cc1)n1cnc2c1c(=O)n(C)c(=O)n2C`, for which the negative-log IC50 (pIC50) in assay [9] was 5.27. `Cc1cc(-c2ccc(CC(=O)Nc3ccc(-c4cccnc4)cc3)cc2)ccn1`: the pIC50 in assay [4] is 10.13.
